The values below come from US9682993B2, “Anticancer compounds” (ST. JUDE CHILDREN'S RESEARCH HOSPITAL, priority 2012, dated 2017).

Series [1] has as its system cell lines investigated. Description: Drug combination assays, cell line not stated. Format: cell-based. Conditions: all cell lines investigated.
Series [2] can be described thus: In vivo plasma pharmacokinetic study in C.B-17 scid mice. As to the method: A sensitive and specific LC-MS/MS assay was developed for quantification of compound 20 in plasma for application in a murine pharmacokinetic study. Calibrators and quality controls (QCs) were prepared using 100% methanol stocks in blank C.B-17 scid mouse plasma with lithium heparin anticoagulant. The calibrators and QCs, 25 μL each, were stored briefly on wet ice and then protein precipitated with 75 μL of ice cold compound 19 internal standard processing solution. The supernatants, 100 μL of each, were mixed with 100 μL of methanol-10 mM ammonium bicarbonate, pH 7.0 (50:50 v/v) and injected from the 96-well plate to the LC-MS/MS system via a CTC HTS PAL autosampler. Chromatography was performed using a Phenomenex Synergi Fusion-RP C18 column ([…], 50 mm×2.0 mm) maintained at 35° C., and a linear gradient mobile phase consisting of water:methanol:acetonitrile ([…], v/v) to methanol: acetonitrile (70:30, v/v) and back. […] Detection was performed with an AB Sciex 5500 QTRAP LC-MS/MS System equipped with a Turbo IonSpray® source using the positive multiple-reaction monitoring (MRM) mode. The transitions monitored included m/x 475->288 for compound 20 and m/x 489->400 for compound 19, which served as an internal standard. The lower limit of quantitation was 1 ng/mL (5× S:N ration, <20% CV); intra-run precision and accuracy was ≦11.2% CV and 96.5-103%, respectively. The calibration curve was linear from 1 to 500 ng/mL (R=0.9968) and QC samples above the limit of quantitation (500 ng/mL) were precisely and accurately diluted into the linear range with blank C.B-17 scid mouse plasma.
A plasma PK study of compound 20 in male C.B-17 scid mice receiving a continuous i.v. infusion of compound 20 (100 mg/kg over 30 min) was performed. Compound 20 was formulated in 15% Captisol®/50 mM Na2HPO4/NaH2PO4 solution at 3 mg/mL and infused with a syringe pump at a rate of 20 μL/min via a jugular vein catheter. Blood samples (1 to 2 samples per mouse, 18 samples from 11 total mice) were collected by either retro-orbital sinus bleeding or terminal cardiac puncture at the following times after the start of infusion: 7.5, 15, 30 (end of infusion), 35, 45, and 60 minutes. The samples were immediately processed to plasma by centrifugation at 2000 g for 5 min; the resultant volume of plasma was then protein precipitated with a 3:1 volume of ice cold IS processing solution. The supernatants were immediately placed on dry ice and then stored at −80° C. until analysis.
The concentration-time data for compound 20 in mice was analyzed using the MLEM population estimation method as implemented in ADAPTS (D'Argenio, D. Z. and Schumitzky, A., Wang ADAPT 5 User's Guide: Pharmacokinetic/Pharmacodynamic Systems Analysis Software; Biomedical Simulations Resource: Los Angeles, Calif., USA, 2009). A linear, one-compartment PL model was fit to the data, and the adequacy of the fit was assessed by the −2 log likelihood value, visual predictive checks, and the residual plots. Inter-individual variability in plasma clearance (CL) and volume of distributions (V) was assumed to be log-normally distributed with the covariance matrix constrained to diagonal elements. The residual, intra-individual error was described using an additive and proportional model, with the additive term fixed to the lower limit of quantitation of the LC-MS/MS assay (LLOQ, 1 ng/mL). Beal's M3 method was used to handle data that was below the LLOQ (Beal, S. L., J. Pharmacokinet. Pharmacodyn. 2001, 28, 481). Other secondary parameters, such as the area under the plasma concentration-time curve to infinity (AUCinf), maximum plasma concentration (Cmax), and the time of Cmax (Tmax) were derived for the population using standard formulae (Pharmacokinetics, Second Edition; Gibaldi, M.; Perrier, D., Eds.; 2nd ed.; CRC Press, 1982).

Series [3] relates to SK-MEL-2 xenograft tumors. Description: In vivo tumor xenograft study. Also on record: species or system C.B-17 scid mice. As to the method: Xenograft tumors were first established from an SK-MEL-2 cell culture at the St. Jude Children's Research Hospital Xenograft Core. After these tumors were established as a mouse xenograft model, they were routinely maintained in the C.B-17 scid strain (Taconic Farms, Germantown, N.Y.). Experimental animals were prepared by transplanting small pieces of dissected tumors from donor animals into recipient mice. All animal studies were performed in accordance with the St. Jude Children's Research Hospital Animal Care and Use Committee. SK-MEL-2 xenograft tumors were transplanted into male C.B-17 scid mice on Day −21. On Days −7 to −5, a jugular vein catheter was surgically implanted into each mouse. […] Infusions were carried out by placing the animals inside a continuous infusion system (Instech Laboratories, Plymouth Meeting, Pa.), and delivering the vehicle or drug solution via the jugular catheter at a rate of 4 μL/min with a SP230iw syringe pump (WPI, Sarasota, Fla.). […] Tumors were continuously measured during and after infusion periods, 5 times per week (weekdays). Tumor volumes were determined based on the following equation: Tuvol=(δ1/2+δ2/2)^1.5708, where δ1 and δ2 are diameters measured with a caliper at right angles of each other. The size of the tumors ranged from 0.2 to 0.5 cm^3 at the times the infusions were initiated.
The efficacy of compound 20 in the inhibition of tumor growth in mice was evaluated using the methods as described herein above. Thus, SK-MEL-2 tumors were transplanted into male C.B-17 scid mice. The animals were subsequently infused over 4 h with either vehicle (8 mice) or compound 20 (9 mice) for 5 consecutive days.

Setting [4] is: male, C.B-17 scid, mouse, plasma, iv, 100 mg/kg, i.v. infusion over 30 min, population.
The mark [5] stands for this setting: 50 mg/kg over 4 h, once a day for 5 days.

As for `CNC(=O)O[C@@H](C)/C=C\C(=O)N[C@H]1CC[C@@H](C/C=C(C)/C=C/[C@@H]2C[C@]3(CO3)CC(C)(C)O2)CC1` [compound 20, (S,Z)-5-(((1R,4R)-4-((2E,4E)-5-((3R,5S)-7,7-Methyl-1,6-Dioxaspiro[2.5]Octan-5-Yl)-3-Methylpenta-2,4-Dien-1-Yl)Cyclohexyl)Amino)-5-Oxopent-3-En-2-Yl Methylcarbamate], in series [1], the “synergy with PI3K/mTOR inhibition” value was “synergy is also seen”. Further, the “mean CL relative to hepatic blood flow” value in series [2] (i.v. infusion over 30 min) came out at 3 fold. In addition, the V in series [2] (i.v. infusion over 30 min, population mean) is listed as 0.877 L/kg. Further, in series [2] (setting [4]), the area under the curve AUC(0-inf) is 12.5 µM·h, the maximum concentration (Cmax) worked out at 24.1 µM and the Tmax is 30 min. Moreover, the half-life in series [2] (male, C.B-17 scid, mouse, plasma, iv, 100 mg/kg, i.v. infusion over 30 min, population mean terminal elimination half-life) amounted to 2.18 min. In series [2] (male, C.B-17 scid, mouse, plasma, iv, i.v. infusion over 30 min (100 mg/kg, 50 mg/kg elsewhere in the source), population mean), the clearance came out at 280 mL/min/kg. For the same molecule, the “plasma concentration versus target plasma concentration” value in series [2] (target far exceeded and maintained for an adequate time period) is over 0.5 µM. Moreover, in series [3] (setting [5]), the “inhibition of tumor growth during the infusion period” value is 100% and the “inhibition of tumor growth subsequent to the dosing period” value is “significant inhibition”. In addition, the “fatalities or behavioral changes versus control infusion” value in series [3] (infusion over 4 h for 5 consecutive days) is given as “No differences in fatalities or behavioral changes”.

A word on the AUC(0-inf): it is the area under the concentration-time curve extrapolated to infinity. One may read the Cmax as the maximum level reached in the sampled fluid or tissue. The term Tmax denotes the time from dosing to the highest level. As usually defined, the half-life is how long it takes for the measured level to halve. A word on the clearance: it is the volume of plasma or blood freed of the substance per unit of time.
